This note sets out measurements from patent US4902685A, “2-amino-3-cyano-bicyclic pyridines/pyrazines as inhibitors of interleukin 1” (American Home Products Corporation, priority 1988, dated 1990).

The term inhibition denotes the relative decrease from the control value, in per cent.

One test concerns IL 1-induced release of neutral protease from rabbit articular chondrocytes. The test is described as follows: inhibition of IL 1-induced release of neutral protease from rabbit articular chondrocytes (azocoll assay). The class given is cell-based. Particulars: Oryctolagus cuniculus, Chondrocyte; dose 1 μM; human IL 1; 24 h; relative to vehicle-treated chondrocytes; read-out: % Inhibition (I.S.D.). The procedure:
The ability of the compounds of the inventions to inhibit interleukin 1 is measured by the ability of the test compounds to inhibit the IL 1-induced release of neutral protease from rabbit articular chondrocytes.
This assay is carried out as follows:
Isolation of rabbit chondrocytes:
Male New Zealand White rabbits are anesthetized with 50 mg/kg of ketamine (i.m.) and killed by an intracardiac injection of 3 mls. of Nembutal. The knee joints of both legs are resected and the articular surfaces are exposed. Cartilate slices are obtained using a scalpel and are placed in a tissue culture dish (100 mm diameter) containing 10 mls of Hank's balanced salt solution (HBSS). The chrondrocytes within the cartilage slices are then liberated by a series of enzyme digestions. The slices are incubated for 10 min. at 37° C. in 0.05% hyaluronidase (Sigma H-3884), rinsed with HBSS and incubated with 0.2% trypsin (Sigma T-2395)for 10 min. at 37° C. The slices are rinsed again and incubated for 10 mins. at 37° C. with 1.2% collagenase (Sigma C-5138). The slices are then rinsed again with HBSS and resuspended in 10 ml of Ham's F-12 medium containing 10% fetal bovine calf serum (FCS) and 0.2% collagenase and incubated overnight at 37° C. in a 5% CO2 incubator. The next day, the medium containing the digested cartilage fragments and liberated chondrocytes is transferred to a 15 ml centrifuge tube and the cells are collected by centrifugation and washed twice and resuspended in Ham's F-12 medium. The cells are then placed into 24-well tissue culture plates (2×10^5 cells/well) and incubated at 37° C. until confluent (usually 4-6 days).
Stimulation of chondrocytes and drug treatment:
The confluent chondrocytes are rinsed twice with serum-free Ham's F-12 medium and 1 ml is added to each well. Fifty μl of purified human IL 1 (100 Units/ml; Genzyme Corporation, Boston, MA) is then added to stimulate these cells to secrete neutral protease. To measure drug effects, the cells are treated with test compound 10 min. prior to addition of IL 1. The standard screening dose is 10 μM. Twenty-four hours after IL 1 stimulation, supernatant fluids are collected and assayed for neutral protease activity.
The neutral protease activity of chrondrocyte supernatant fluids is determined by their ability to degrade an insoluble protease substrate, azocoll (Sigma). Supernatants are treated for 10 min. at room temperature with 350 μM p-aminophenylmercuric acetate to activate the latent enzyme. Three hundred μl of supernatant is then mixed with 500 μl of a 20 mg/ml suspension of azocoll and incubated at 37° C. for 18-24 hrs. with gentle rocking. The mixtures are centrifuged and the amount of substrate hydrolyzed is determined by measuring the absorbance of the supernatant at 520 nm.
Drug effects are calculated as the % change in enzyme activity (absorbance)by supernatants from drug-treated chrondrocytes relative to enzyme activity of supernatants from vehicle-treated chondrocytes as follows: [formula]
Consider `N#Cc1cc2c(nc1N)CCCC2` [Example 5, 2-Amino-5,6,7,8-tetrahydro-3-quinolinecarbonitrile], for which the inhibition at 1 µM was 60%.

The same test, now with this note: Oryctolagus cuniculus, Chondrocyte; dose 10 μM; human IL 1; 24 h; relative to vehicle-treated chondrocytes; read-out: % Inhibition (I.S.D.).
`N#Cc1ccc(N2CCc3nc(N)c(C#N)cc3C2)cc1` [Example 1, 2-Amino-6-(4-cyanophenyl)-5,6,7,8-tetrahydro-1,6-naphthyridine-3-carbonitrile]: the inhibition at 10 µM is 18%.
In the case of `N#Cc1ccc(N2CCc3nc(N)c(C#N)nc3C2)cc1` [Example 2, 2-Amino-6-(4-cyanophenyl)-5,6,7,8-tetrahydropyrido[3,4-b]pyrazine-3-carbonitrile], the inhibition at 10 µM worked out at 37%.
Still for that read-out and setting: the result for `CS(=O)(=O)c1ccc(N2CCc3nc(N)c(C#N)cc3C2)cc1` [Example 3, 2-Amino-5,6,7,8-tetrahydro-6-[4-(methylsulfonyl)phenyl]-1,6-naphthyridine-3-carbonitrile] reads 59%; that for `N#Cc1nc2c(nc1N)CCCC2` [Example 4, 2-Amino-5,6,7,8-tetrahydro-3-quinoxalinecarbonitrile], 41%; that for `N#Cc1cc2c(nc1N)CCCC2` [Example 5, 2-Amino-5,6,7,8-tetrahydro-3-quinolinecarbonitrile], 59%.
